Laboratory results published in patent US20140294729A1, “METHODS FOR IDENTIFICATION AND USE OF AGENTS TARGETING CANCER STEM CELLS” (Whitehead Institute for Biomedical Research, priority 2008, published 2014).
Entries after “also recorded” stand apart in the source; their conditions may differ.

What was measured:
Assay type in all cases: cell-based, human
[1] = tested on: HMLEshEcad cells; test: Dose-response viability of HMLEshCntrl vs HMLEshEcad cells (validation of hits, 384-well, Cell-Titer-Glo); conditions: FIG. 4A; for selective toxicity towards HMLEshEcad cells relative to HMLEshCntrl cells: dose response on retesting
Method: (§1) FIG. 4A depicts dose response curves of HMLEshCntrl (A, light gray curve) and HMLEshEcad (A, dark gray curve) cells treated with the 8 compounds identified during the initial screen. 1000 cells of each line were seeded onto 384 well plates and treated with 8 different concentrations of compounds within a 2.5 log range. The cell viability after 3 day treatment was measured by Cell-Titer-Glo. […] FIG. 4B depicts dose response curves of HMLEshCntrl (curve with square data points) and HMLE-Twist (curve with triangular data points) cells treated with the same compounds as in (A). Note that selectivity of Salinomycin, Abamectin, Etoposide and Nigericin (Top, Left-to-Right) is retained even though a different method of EMT induction is used. […] 1 Day after seeding DMSO, Salinomycin (1.25 or 5 μM) or Abamectin (0.25 or 1.25 μM) was added at the indicated concentration. As the GFP vector contains a Blasticidin resistance gene, we used Blasticidin treatment as a positive control for the expansion of GFP-expressing control HMLE cells. After 3 day incubation the mix population of cells were analyzed by flow cytometry and the percentage of GFP-positive cells were determined. […] FIG. 4D depicts dose response curves of transformed HMLERshCntrl (light gray line) and HMLERshEcad (dark gray lines) cells treated with Salinomycin and Abamectin. Dotted line denotes the 50% fraction surviving.
We pursued 8 of the 32 compounds for further study and evaluated their effects across a range of doses.
For each of these compounds, we evaluated the effect on cell viability across a series of doses for sibling cell lines either induced into or not induced into EMT.
Information about the general automated HTS protocol is available online at broad.harvard.edu/chembio/index.html. The assay was initiated by plating 40 μL of medium containing 1000 cells/well into white 384-well opaque-bottom plates (Nunc, Rochester, N.Y.) using an automated plate filler (Bio-Tek μFiller; Winsooki, Vt.) and allowing the cells to adhere for 24 hours. 100 nL of compound stock solutions in dmso was transferred from stock plates into the 384-well assay plates using an automated pin-based compound transfer robot (CyBio CyBi-Well vario; Woburn, Mass.). For most compounds the final concentration in each well was calculated to be 10 uM.
The screen was performed in duplicate. For negative controls, entire dmso-treated control plates were employed, in addition to dmso-only control wells that were incorporated into each compound assay plate. The cells were assayed for luciferase activity with the addition 20 ul of CellTiter-Glo Luminescent Cell Viability Assay solution (Promega). The luminescent signal from each plate was detected using an automated plate reader (Perkin-Elmer Envision 1; Wellesley, Mass.).
(§2) Individual compounds were purchased from Sigma and dissolved in DMSO with the exception of nigericin which was dissolved in 100% ethanol. Activity of the compounds were quantified by generating dose-response curves for HMLE-shCntrl, HMLE-shEcad and HMLE-Twist under the same cell density and culture conditions described for the initial screen, using the 384-well plate based system.

[2] = tested on: HMLEshEcad cells; test: High-throughput chemical screen for selective toxicity, HMLEshEcad vs HMLEshCntrl (ATP luminescence viability); conditions: for most compounds 10 uM, 3 days, duplicate
Method: We screened compounds for cytotoxicity against both HMLEshEcad and control HMLEshCntrl cells. Cells were seeded in 384-well plates, allowed to grow for one day, treated with compound and assayed for cell viability after three days using a luminescence assay; compounds were screened in duplicate for each cell line (FIG. 3A; See Example 3). We screened a collection of ˜16,000 compounds, including many with known bioactivity, natural extracts, modulators of histone deacetylases, and several diverse commercial libraries.
We developed conditions to use an ATP-based luminescence viability assay with 384-well plates in high throughput screening (see Example 3 for Methods). We screened a total of 16,000 compounds as part of our screen. […]
Using the measurements from the plate-normalized DMSO control wells, we constructed the distribution of luminescence intensities for each cell line in the absence of compound (FIG. 3A). […]
Information about the general automated HTS protocol is available online at broad.harvard.edu/chembio/index.html. […] For most compounds the final concentration in each well was calculated to be 10 uM.
The screen was performed in duplicate. […] The luminescent signal from each plate was detected using an automated plate reader (Perkin-Elmer Envision 1; Wellesley, Mass.). […]

[3] = tested on: HMLE-Twist cells; test: Dose-response viability of HMLEshCntrl vs HMLE-Twist cells; conditions: EMT induced by Twist, FIG. 4B
Method: as §1, §2

Row | Structure (SMILES) | IC50 fold lower for HMLEshEcad cells vs HMLEshCntrl cells ([1]; 3 day treatment, 8 concentrations) [fold] | selective toxicity towards HMLEshEcad cells relative to HMLEshCntrl cells [1] | selective toxicity towards HMLEshEcad cells relative to HMLEshCntrl cells ([1]; listed as Etoposide) | specific toxicity towards HMLEshEcad (siEcad) line in the primary screen [2] | selectivity for HMLE-Twist cells vs HMLEshCntrl; dose-response curves compared with HMLEshEcad [3]
1 | COc1cc([C@@H]2c3cc4c(cc3[C@@H](O[C@@H]3O[C@@H]5CO[C@@H](C)O[C@H]5[C@H](O)[C@H]3O)[C@H]3COC(=O)[C@H]23)OCO4)cc(OC)c1O [etoposide] | ~10 | moderate to strong selectivity; also recorded: strong specificity | selective toxicity | did score positively | is retained
2 | CN(Cc1cnc2nc(N)nc(N)c2n1)c1ccc(C(=O)N[C@@H](CCC(=O)O)C(=O)O)cc1 [methotrexate] | – | – | – | did score positively | –
